The results in this text go back to US20110027354A1, “ANTI-PA[…]” (priority 2008, published 2011).

In data set [1] the test system is mice. Briefly: Locomotor activity after repeated treatment with drug alone. In kind it is in vivo. The note with it: repeated treatment i.p./day×7, selegiline or MPPE 2.5 or 5.0 mg/kg, MA 0.5 or 1.0 mg/kg. The protocol: Selegiline or […] was injected (2.5 or 5 mg/kg, i.p.) once a day for 7 consecutive days. Methamphetamine, a positive control, was also administered (0.5 or 1 mg/kg, i.p.) once a day for 7 days.
Locomotor activity measured for 30 min one day after the last MPTP administration using an automated video-tracking system (Noldus Information Technology, Wagenin, The Netherlands). Eight test boxes (40×40×30 cm high) were operated simultaneously by an IBM computer. Animals were studied individually during locomotion in each test box, where they were adapted for 5 min before starting the experiment. […] The distance traveled in cm by the animals in horizontal locomotor activity was analyzed. Data were collected and analyzed between 09:00 and 17:00 h (Kim et al., 2001).

Data set [2] relates to mice. Description: Conditioned place preference (CPP). The following applies: selegiline or MPPE 2.5 or 5.0 mg/kg i.p., MA 0.5 or 1.0 mg/kg i.p.; vs. saline. In kind it is in vivo. The protocol:
For conditioned place preference (CPP) test, mice received an i.p. injection of saline just before entering the […] compartment. MA (0.5 or 1.0 mg/kg, i.p.), selegiline (2.5 or 5.0 mg/kg, i.p.), and MPPE (2.5 or 5.0 mg/kg, i.p.) dissolved in saline was administered immediately before the mice were placed in the white compartment. On day 1, the mice were pre-exposed to the test apparatus for 15 minutes. The guillotine style doors were raised and mice were allowed to move freely between the two compartments. On day 2, the time each mouse spent in each compartment was recorded for 15 minutes. On days 3, 5, 7, 9, 11, and 13, the mice were injected with each drug before being confined to the white compartment, the non-preferred side, for 40 minutes. On day 14, the guillotine doors were raised. The mice were initially placed in the tunnel and the time spent by the mice in the two compartments was recorded for 15 minutes. The scores were calculated from the differences in the time spent in the white compartment in the testing and pre-testing phases. Data were analyzed between 09:00 and 17:00 hours.

Consider `CN[C@@H](C)Cc1ccccc1` [MA, methamphetamine], for which the locomotor patterns entry in data set [1] is “typical circling locomotor patterns”. The locomotor activities result in data set [1] (vs. saline) was “significantly increased”. For the same compound, the “conditioned place preference (CPP)” value in data set [2] is given as “significantly increased compared with saline”.
